According to the Kinase Knowledgebase extract (Sharma et al. 2016):
Where “and” joins values, the source holds several entries; their conditions need not be identical. Equal values may be shown once.

Assays:
[1] = molecular target: EGFR (human) (UniProt P00533); conditions: a431
[2] = molecular target: EGFR (human) (UniProt P00533)

Sequence of EGFR (human) (P00533 whole entry, looked up): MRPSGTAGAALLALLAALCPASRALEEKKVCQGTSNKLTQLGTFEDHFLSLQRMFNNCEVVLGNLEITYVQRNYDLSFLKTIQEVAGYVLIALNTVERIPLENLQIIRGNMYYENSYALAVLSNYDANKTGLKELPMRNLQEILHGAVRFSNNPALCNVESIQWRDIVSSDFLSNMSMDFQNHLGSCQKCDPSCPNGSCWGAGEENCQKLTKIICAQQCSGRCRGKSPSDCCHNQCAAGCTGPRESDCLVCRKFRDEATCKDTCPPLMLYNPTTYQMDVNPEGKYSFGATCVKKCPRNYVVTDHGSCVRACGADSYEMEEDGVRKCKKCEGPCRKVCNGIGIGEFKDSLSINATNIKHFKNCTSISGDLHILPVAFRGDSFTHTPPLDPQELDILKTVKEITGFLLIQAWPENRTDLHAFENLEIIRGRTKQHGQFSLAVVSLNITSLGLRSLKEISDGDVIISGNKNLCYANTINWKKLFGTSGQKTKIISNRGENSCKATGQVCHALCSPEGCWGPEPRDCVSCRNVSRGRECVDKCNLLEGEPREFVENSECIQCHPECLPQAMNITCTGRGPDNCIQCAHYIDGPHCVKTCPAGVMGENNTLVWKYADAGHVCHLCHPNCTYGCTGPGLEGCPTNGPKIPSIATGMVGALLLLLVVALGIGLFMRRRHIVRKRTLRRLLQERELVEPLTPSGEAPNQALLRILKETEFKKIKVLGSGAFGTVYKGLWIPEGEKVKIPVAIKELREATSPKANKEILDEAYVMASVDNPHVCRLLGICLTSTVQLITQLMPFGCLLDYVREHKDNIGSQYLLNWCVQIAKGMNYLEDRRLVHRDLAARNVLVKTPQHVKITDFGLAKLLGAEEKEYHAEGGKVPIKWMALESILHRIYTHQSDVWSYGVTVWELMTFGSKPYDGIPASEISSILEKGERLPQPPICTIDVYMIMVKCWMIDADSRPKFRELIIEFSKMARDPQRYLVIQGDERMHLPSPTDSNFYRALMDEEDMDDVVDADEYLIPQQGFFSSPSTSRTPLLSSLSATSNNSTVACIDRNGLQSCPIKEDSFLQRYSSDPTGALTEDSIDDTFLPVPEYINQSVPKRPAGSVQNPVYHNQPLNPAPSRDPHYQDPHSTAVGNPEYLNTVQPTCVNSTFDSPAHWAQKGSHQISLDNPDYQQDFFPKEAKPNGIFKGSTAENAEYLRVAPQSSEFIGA

| SMILES | IC50 [1] | IC50 [2] |
| --- | --- | --- |
| Fc1cccc(COc2ccc(Nc3ncnc4ccc(-c5ccn(CCN6CCCCCC6)c5)cc34)cc2Cl)c1 | 0.657 µM | 0.027 µM |
| CN1CCN(CCNC(=O)c2cn(-c3ccc4ncnc(Nc5ccc(OCc6cccc(F)c6)c(Cl)c5)c4c3)cc2CCO)CC1 | 0.01 µM | 0.0075 µM |
| OCCc1cn(-c2ccc3ncnc(Nc4ccc(OCc5ccccn5)c(Cl)c4)c3c2)cc1CN1CCCCC1 | 0.003 µM | 0.032 µM |
| Fc1cccc(Cn2ncc3cc(Nc4ncnc5ccc(-c6ccn(CCN7CCOCC7)c6)cc45)ccc32)c1 | 0.1 µM | 0.006 µM |
| Fc1cccc(COc2ccc(Nc3ncnc4ccc(-n5cc6c(c5)C(=NOCCN5CCOCC5)CC6)cc34)cc2Cl)c1 | 0.02 µM | 0.086 µM and 0.094 µM |
| CC(=O)NC1CCN(CC(O)Cn2ccc(-c3ccc4ncnc(Nc5ccc(OCc6cccc(F)c6)c(Cl)c5)c4c3)c2)CC1 (stereo not given) | 1.28 µM | 0.001 µM |
| CS(=O)(=O)CCN1CCOC(Cn2ccc(-c3ccc4ncnc(Nc5ccc6c(cnn6Cc6cccc(F)c6)c5)c4c3)c2)C1 (stereo not given) | 0.572 µM | 0.236 µM |
| Fc1cccc(COc2ccc(Nc3ncnc4ccc(-c5ccn(CCCN6CCOCC6)c5)cc34)cc2Cl)c1 | 1.37 µM | 0.039 µM |
| O=C(Cn1ccc(-c2ccc3ncnc(Nc4ccc(OCc5cccc(F)c5)c(Cl)c4)c3c2)c1)N1CCNCC1 | 0.661 µM | 0.041 µM |
| CS(=O)(=O)CCNCC(O)Cn1ccc(-c2ccc3ncnc(Nc4ccc5c(cnn5Cc5cccc(F)c5)c4)c3c2)c1 (stereo not given) | 0.43 µM | 0.001 µM |
| Fc1cccc(COc2ccc(Nc3ncnc4ccc(-c5ccn(CCN6CCCC6)c5)cc34)cc2Cl)c1 | 0.04 µM | 0.004 µM |

Now from value to compound:

| IC50 [1] | IC50 [2] | SMILES |
| --- | --- | --- |
| 0.17 µM | 0.005 µM | OC(CN1CCOCC1)Cn1ccc(-c2ccc3ncnc(Nc4ccc5c(cnn5Cc5cccc(F)c5)c4)c3c2)c1 (stereo not given) |
| 1.03 µM | 0.006 µM | CCN(CC)CCn1ccc(-c2ccc3ncnc(Nc4ccc5c(cnn5Cc5cccc(F)c5)c4)c3c2)c1 |
| 4.2 µM | 0.598 µM | OC(CN1CCN(Cc2ccncc2)CC1)Cn1ccc(-c2ccc3ncnc(Nc4ccc5c(cnn5Cc5cccc(F)c5)c4)c3c2)c1 (stereo not given) |
| 0.615 µM | 0.038 µM | CS(=O)(=O)CCOCC(O)Cn1ccc(-c2ccc3ncnc(Nc4ccc(OCc5cccc(F)c5)c(Cl)c4)c3c2)c1 (stereo not given) |
| 0.16 µM | 0.008 µM | O=C(c1cn(-c2ccc3ncnc(Nc4ccc(OCc5cccc(F)c5)c(Cl)c4)c3c2)cc1CCO)N1CCOCC1 |
| 0.24 µM | 0.106 µM | O=C(Cn1ccc(-c2ccc3ncnc(Nc4ccc(OCc5cccc(F)c5)c(Cl)c4)c3c2)c1)N1CCC(N2CCCC2)CC1 |
| 0.83 µM | 0.016 µM | CS(=O)(=O)CCNCc1cn(-c2ccc3ncnc(Nc4ccc(OCc5cccc(F)c5)c(Cl)c4)c3c2)cc1C(F)(F)F |
| 0.049 µM | 0.08 µM | Fc1cccc(COc2ccc(Nc3ncnc4ccc(-c5ccn(Cc6ccncc6)c5)cc34)cc2Cl)c1 |
| 0.12 µM | 0.0026 µM | CS(=O)(=O)CCNCc1ccc(-c2ccc3ncnc(Nc4ccc(OCc5cccc(F)c5)c(Cl)c4)c3c2)[nH]1 |
| 0.431 µM | 0.022 µM | OC(CN1CC=CC1)Cn1ccc(-c2ccc3ncnc(Nc4ccc(OCc5cccc(F)c5)c(Cl)c4)c3c2)c1 (stereo not given) |
| 0.4 µM | 0.058 µM | OC(Cn1ccc(-c2ccc3ncnc(Nc4ccc5c(cnn5Cc5cccc(F)c5)c4)c3c2)c1)Cn1ccnn1 (stereo not given) |
| 0.362 µM | 0.039 µM | OC(CN1CCC(N2CCCC2)CC1)Cn1ccc(-c2ccc3ncnc(Nc4ccc(OCc5cccc(F)c5)c(Cl)c4)c3c2)c1 (stereo not given) |
| 1.08 µM | 0.004 µM | Fc1cccc(COc2ccc(Nc3ncnc4ccc(-c5ccc[nH]5)cc34)cc2Cl)c1 |
| 0.29 µM | 0.032 µM | Fc1cccc(COc2ccc(Nc3ncnc4ccc(-c5ccn(CCCN6CCN(c7cccc(Cl)c7)CC6)c5)cc34)cc2Cl)c1 |
